Measurements from patent publication US20220047773A1, “SELF-ELIMINATING COATINGS” (Interface Biologics, Inc., priority 2007, published 2022).

Experiment: Partitioning in 1-octanol/PBS system
Type: physicochemical
Experimental: The partitioning of Compounds synthesized in Examples 1-13 was measured in a 1-octanol/PBS system. The partitioning correlates with the lipophilicity of the Compounds, and is used to predict the adsorption and distribution of Compounds under investigation. 1-octanol and PBS were thoroughly mixed to provide PBS-saturated 1-octanol in the top phase and 1-octanol-saturated PBS in the bottom phase. Solutions of Compounds 1, 2, 3, 6, 7, 8, 9, 10, 11, 12, 16, PTX, and SIBS (0.05 mL) were added to each vial of 1-octanol/PBS. The vials were rocked for 4 hours, ensuring good contact between the phases. An aliquot of the organic phase from each sample was then analyzed by GPC (THF mobile phase, RI), which had been calibrated using known concentrations of each compound. The area under the RI peak was used to estimate the concentration of each compound in the organic phase. The mass of each Compound was then used to calculate the weight percentage in organic phase by the following formula: (mass of Compound in 1-octanol phase/total mass)×100%. The partition coefficient was calculated according to the following formula: log([Compound in 1-octanol]/[Compound in PBS]). […]

- logD at 4 h: 1
- wt % in 1-octanol (1-octanol/PBS, rocked 4 hours, GPC of organic phase): 94%
SMILES: CC(=O)O[C@H]1C(=O)[C@@]2(C)[C@H]([C@H](OC(=O)c3ccccc3)[C@]3(O)C[C@H](OC(=O)[C@H](O)[C@@H](NC(=O)c4ccccc4)c4ccccc4)C(C)=C1C3(C)C)[C@]1(OC(C)=O)CO[C@@H]1C[C@@H]2O [PTX, paclitaxel, reference compound]
